Measurements taken from patent US20240150321A1, “PYRAZOLYLSULFONAMIDE COMPOUNDS AND THEIR USE IN THERAPY” (HOTSPOT THERAPEUTICS, INC., priority 2022, published 2024).
Like-named read-outs stand apart in the source and are kept apart here.

Columns and labels:
Avi-tagged FL MALT-1 = Avi-tagged FL MALT-1 (Homo sapiens (Human), UniProt Q9UDY8); assay: MALT-1 Fluorogenic Peptide Cleavage Assay (MALT1 inhibition assay); format: biochemical; conditions: Ac-LRSR-AMC peptide substrate, 30 min pre-incubation, 90 min reaction at room temperature
Description: Inhibition of MALT1 activity by the presence of small molecules was evaluated using MALT-1 Fluorogenic Peptide Cleavage Assay. The assay utilizes a quenched AMC-labelled peptide that contains the MALT-1 recognition sequence and cleavage site (LRSR). MALT-1 mediated cleavage of the peptide relieves the quenching and leads to an increase in fluorescence at excitation (342 nm) and emission (441 nm).
The following reagents were obtained commercially and used to prepare standard reagent formulations as further described below: N-2-hydroxyethylpiperazine-N-2-ethane sulfonic acid (HEPES) (1 M, pH 7.5, stored at 4° C.), sodium citrate (stored at RT), tris(2-carboxyethyl) phosphine hydrochloride (T-CEP) (500 mM, stored at −20° C.), ethylenediaminetetraacetic acid (EDTA) (500 mM, stored at RT), dimethylsulfoxide (DMSO, stored at RT), 3-[(3-cholamido-propyl)dimethylammonio]-1-propane sulphate (CHAPS) (stored at RT), dimethylsulfoxide (DMSO), DMSO (Fisher Scientific, stored at RT), Avi-tagged FL MALT-1 (Pharmaron, stored at −70° C.), Ac-LRSR-AMC Peptide (SM Biochemicals, stored at −20° C.)., and ultrapure water (MILLLI-Q©).
The standard reagent formulations used in this assay were prepared and stored as follows. A 1.1 M solution of sodium citrate (161.3 g, 500 mL) was prepared and stored at room temperature. A 10% (w/v) CHAPS solution (2.0 g, 20 mL) was prepared and stored at 4° C. A 500 mM HEPES solution having pH of 6.89 was prepared from 200 mL of a 1 M HEPES solution having a pH of 7.5 using concentrated hydrochloric acid and brought to a final volume of 400 mL with MILLI-Q© H2O. The substrate, 10 mM Ac-LRSR-AMC Peptide, was prepared (10 mg, 1.370 mL DMSO) and stored at −20° C.
Compounds were plated to provide a 2% DMSO final concentration using a ProxiPlate-384 Plus F Black 384-shallow well microplate. The assay-ready plates were equilibrated to room temperature. A reaction buffer (30 mL total volume) was prepared by combining HEPES (pH 6.89, 25 mM, 1.5 mL), sodium citrate (660 mM, 18.0 mL), T-CEP (1 mM, 0.06 mL), EDTA ([…], 0.06 mL), CHAPS (0.05%, 0.15 mL), DMSO (2%, 0.6 mL), and MILLI-Q© H2O (10.23 mL; 9.63 mL when backfilled to 2% DMSO) followed by thorough mixing. DMSO was added only when compound plates had not been DMSO-backfilled to 2%.
MALT-1 was thawed and kept on ice. Peptide substrate was thawed on the bench under ambient conditions. A MALT-1 enzyme working stock was prepared from Avi-tagged FL MALT-1 (40 nM in a prepared reagent volume of 16.5 μL) and the reaction buffer (13.0 mL). MALT1 working stock (5 μL) was added to each well of the microplate. MALT-1 was pre-incubated with compounds for 30 minutes at room temperature.
Two substrate working stocks (Km and 10×Km) were prepared. The 1×Km substrate was prepared from Ac-LRSR-AMC Peptide (50 μM in a prepared reagent volume of 35.0 μL) and the reaction buffer (6.965 mL). The 10×Km substrate was prepared from Ac-LRSR-AMC Peptide (280 μM in a prepared reagent volume of 196.0 μL) and the reaction buffer (6.804 mL). The reaction was initiated by the addition of substrate working stock (5 μL, 50 μM) to Km plates and the addition of substrate working stock (5 μL 280 μM) to 10×Km plates. The plates were covered and incubated on the bench at room temperature for 90 minutes.
Fluorescence intensity was determined using a CLARIOstar microplate reader (BMG LABTECH) using the optimised AMC mode. Before taking readings, a 70% gain was applied on the neutral control well. Compound data were normalised to % Inhibition and used to plot sigmoidal concentration response curves to yield various parameters including IC50.

[1] = tested on: NF-kB reporter in Jurkat cells; assay: NF-kB reporter assay in Jurkat cells stimulated with aCD3/aCD28/PMA; format: cell-based; conditions: Jurkat cells, 1 hr compound pre-incubation, aCD3/aCD28/PMA stimulation 4 hr, One-Glo readout, read-out: NF-kB Reporter Assay IC50
Description: Jurkat cells were maintained in complete RPMI 1640 media supplemented with 10% FBS. Prior to the assay, 120 nL of the serial diluted compound was added in each well of 384-well flat bottom white plate (Corning #3570) by using liquid handler Echo550. Jurkat cells were harvested by centrifugation at 120 g for 10 min and resuspended in fresh RPMI 1640 media without serum. […] (25,000 cells) were seeded in each well of 384-well plate containing compound. After 1 hr incubation at 37° C. in a 5% CO2 incubator, […] of diluted aCD3/aCD28/PMA (final concentration at […] and […], respectively) in RPMI 1640 without serum were added to each well. After incubation at 37° C. in 5% CO2 for 4 hr, […] of One-Glo reagent (Promega #E6120) was added into each well. The plate was left at room temperature for 5 min and the signal was measured on EnVision (PerkinElmer).
Compounds in which an IC50 was not measured are designated as “N/A”.

Avi-tagged FL MALT-1, sequence (Q9UDY8 whole entry): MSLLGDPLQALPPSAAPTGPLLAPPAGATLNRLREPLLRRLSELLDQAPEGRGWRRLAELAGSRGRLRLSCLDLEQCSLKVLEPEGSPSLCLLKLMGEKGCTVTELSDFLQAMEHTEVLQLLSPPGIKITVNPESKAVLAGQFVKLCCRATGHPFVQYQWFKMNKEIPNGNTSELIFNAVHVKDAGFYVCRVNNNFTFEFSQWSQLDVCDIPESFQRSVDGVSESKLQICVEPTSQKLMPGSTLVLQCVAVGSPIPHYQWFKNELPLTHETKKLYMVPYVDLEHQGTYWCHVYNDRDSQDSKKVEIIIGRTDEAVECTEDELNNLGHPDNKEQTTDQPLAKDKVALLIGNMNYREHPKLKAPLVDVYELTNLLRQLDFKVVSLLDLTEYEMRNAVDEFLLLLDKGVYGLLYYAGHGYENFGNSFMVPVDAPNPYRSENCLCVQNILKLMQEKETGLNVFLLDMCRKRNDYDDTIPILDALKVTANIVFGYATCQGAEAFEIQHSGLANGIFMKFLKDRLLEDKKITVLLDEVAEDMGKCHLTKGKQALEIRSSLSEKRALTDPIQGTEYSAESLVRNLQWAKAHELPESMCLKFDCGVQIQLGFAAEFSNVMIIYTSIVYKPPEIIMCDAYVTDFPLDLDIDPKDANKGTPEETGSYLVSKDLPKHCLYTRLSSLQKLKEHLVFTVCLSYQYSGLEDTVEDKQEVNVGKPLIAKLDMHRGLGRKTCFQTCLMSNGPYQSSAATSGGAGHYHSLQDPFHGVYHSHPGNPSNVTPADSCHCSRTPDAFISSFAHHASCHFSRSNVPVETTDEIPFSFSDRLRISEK

Compound | IC50 (Avi-tagged FL MALT-1) | IC50 ([1]; Homo sapiens) | IC50 [1]
CC[C@](C)(O)c1ccnc(-n2cc(S(=O)(=O)Nc3cccc4cnn(C)c34)cn2)c1 [Compound I-294] | > 2500 nM | < 400 nM | –
Cn1ncc2cccc(NS(=O)(=O)c3cnn(-c4cc(N5CC(C)(F)C5)ccn4)c3)c21 [Compound I-440, 1-[4-(3-fluoro-3-methylazetidin-1-yl)pyridin-2-yl]-N-(1-methylindazol-7-yl)pyrazole-4-sulfonamide] | > 2500 nM | < 400 nM | –
COC[C@](C)(OC)c1ccnc(-n2cc(S(=O)(=O)Nc3cccc4cnn(C)c34)cn2)c1 [Compound I-300] | > 2500 nM | < 400 nM | –
Cc1ccc2cnn(C)c2c1NS(=O)(=O)c1cnn(-c2cc(C(F)(F)F)ccn2)c1 [Compound I-60, N-(1,6-Dimethyl-1H-Indazol-7-yl)-1-(4-(Trifluoromethyl) Pyridin-2-yl)-1H-Pyrazole-4-Sulfonamide] | ≤ 400 nM | < 400 nM | –
Cn1ncc2cccc(NS(=O)(=O)c3cnn(-c4cc(C5(F)CC(F)(F)C5)ccn4)c3)c21 [Compound I-383, N-(1-methylindazol-7-yl)-1-[4-(1,3,3-trifluorocyclobutyl)pyridin-2-yl]pyrazole-4-sulfonamide] | > 2500 nM | < 400 nM | –
Cn1ncc2cccc(NS(=O)(=O)c3cnn(-c4cc(C5(C#N)CCCC5)ccn4)c3)c21 [Compound I-448, 1-(4-(1-cyanocyclopentyl)pyridin-2-yl)-N-(1-methyl-1H-indazol-7-yl)-1H-pyrazole-4-sulfonamide] | > 2500 nM | < 400 nM | –
C=Cn1cc2cccc(NS(=O)(=O)c3cnn(-c4cc(C(F)(F)F)ccn4)c3)c2n1 [Compound I-357, 1-(4-(trifluoromethyl)pyridin-2-yl)-N-(2-vinyl-2H-indazol-7-yl)-1H-pyrazole-4-sulfonamide] | > 2500 nM | > 2500 nM | –
COc1ccc2cnn(C)c2c1NS(=O)(=O)c1cnn(-c2cc(N3CC(C)(C#N)C3)ccn2)c1 [Compound I-461] | > 2500 nM | 400 to 1000 nM | –
CCc1ccc2cnn(C)c2c1NS(=O)(=O)c1cnn(-c2ccnc(C(F)(F)F)n2)c1 [Compound I-11, N-(6-Ethyl-1-Methyl-1H-Indazol-7-yl)-1-(2-(Trifluoromethyl) Pyrimidin-4-yl)-1H-Pyrazole-4-Sulfonamide] | 1000 to 2500 nM | – | –
CCc1ccc2cnn(C)c2c1NS(=O)(=O)c1cnn(-c2cccc(C(F)(F)F)n2)c1 [Compound I-12, N-(6-Ethyl-1-Methyl-1H-Indazol-7-yl)-1-(2-(Trifluoromethyl) Pyridin-2-yl)-1H-Pyrazole-4-Sulfonamide] | > 2500 nM | – | –

Second part, the compound after the results:

IC50 (Avi-tagged FL MALT-1) | IC50 ([1]; Homo sapiens) | IC50 [1] | Compound
> 2500 nM | < 400 nM | – | Cn1ncc2cccc(NS(=O)(=O)c3cnn(-c4cc(C5=CCOC5)ccn4)c3)c21 [Compound I-109, 1-(4-(2,5-Dihydrofuran-3-yl)Pyridin-2-yl)-N-(1-Methyl-1H-Indazol-7-yl)-1H-Pyrazole-4-Sulfonamide]
≤ 400 nM | < 400 nM | – | [2H]C([2H])([2H])n1ncc2ccc(OC)c(NS(=O)(=O)c3cnn(-c4cc(C5CC5)ccn4)c3)c21 [Compound I-97, 1-(4-Cyclopropylpyridin-2-yl)-N-(6-Methoxy-1-(Methyl-D3)-1H-Indazol-7-yl)-1H-Pyrazole-4-Sulfonamide]
≤ 400 nM | 1000 to 2500 nM | – | COc1ccc2[nH]nc(C)c2c1N(C)S(=O)(=O)c1cnn(-c2ccnc(C(F)(F)F)c2)c1 [Compound I-80, N-(5-methoxy-3-Methyl-1H-Indazol-4-yl)-N-Methyl-1-(2-(Trifluoromethyl)Pyridin-4-yl)-1H-Pyrazole-4-Sulfonamide]
> 2500 nM | < 400 nM | – | COc1ncc2cnn(C)c2c1NS(=O)(=O)c1cnn(-c2cc(N3CCCCC3)ccn2)c1 [Compound I-387, N-(6-methoxy-1-methyl-1H-pyrazolo[4,3-c]pyridin-7-yl)-1-(4-(piperidin-1-yl)pyridin-2-yl)-1H-pyrazole-4-sulfonamide]
≤ 400 nM | < 400 nM | – | CCc1ccc2cnn(C)c2c1NS(=O)(=O)c1cnn(-c2ccnc(C(F)(F)F)c2)c1 [Compound I-2, N-(6-Ethyl-1-Methyl-1H-Indazol-7-yl)-1-(2-(Trifluoromethyl) Pyridin-4-yl)-1H-Pyrazole-4-Sulfonamide]
> 2500 nM | < 400 nM | – | CC1CCN(c2ccnc(-n3cc(S(=O)(=O)Nc4cccc5cnn(C)c45)cn3)c2)CC1 [Compound I-390, N-(1-methylindazol-7-yl)-1-[4-(4-methylpiperidin-1-yl)pyridin-2-yl]pyrazole-4-sulfonamide]
> 2500 nM | – | 1000 to 2500 nM | Cc1n[nH]c2cccc(NS(=O)(=O)c3cnn(-c4cc(C5(O)COC5)ccn4)c3)c12 [Compound I-243]
≤ 400 nM | < 400 nM | – | CCc1ccc2cnn(C)c2c1NS(=O)(=O)c1cnn(-c2ccnc(Cl)c2)c1 [Compound I-37, 1-(2-Chloropyridin-4-yl)-N-(6-Ethyl-1-Methyl-1H-Indazol-7-yl)-1H-Pyrazole-4-Sulfonamide]
1000 to 2500 nM | < 400 nM | – | [2H]c1nn(C([2H])([2H])[2H])c2c(NS(=O)(=O)c3cnn(-c4cc(C(C)(F)F)ccn4)c3)cccc12 [Compound I-380, 1-(4-(1,1-difluoroethyl)pyridin-2-yl)-N-(1-(methyl-d3)-1H-indazol-7-yl-3-d)-1H-pyrazole-4-sulfonamide]
1000 to 2500 nM | < 400 nM | – | COc1ncc2cnn(C)c2c1NS(=O)(=O)c1cnn(-c2cc(N3CC(C)C3)ccn2)c1 [Compound I-397]
≤ 400 nM | < 400 nM | – | Cn1ncc2ccc(C3CC3)c(NS(=O)(=O)c3cnn(-c4ccnc(C(F)(F)F)c4)c3)c21 [Compound I-21, N-(6-cyclopropyl-1-Methyl-1H-Indazol-7-yl)-1-(2-(Trifluoromethyl)Pyridin-4-yl)-1H-Pyrazole-4-Sulfonamide]
> 2500 nM | < 400 nM | – | COc1ncc2cnn(C)c2c1NS(=O)(=O)c1cnn(-c2cc(N3CC4(CC4)C3)ccn2)c1 [Compound I-386, 1-(4-(5-azaspiro[2.3]hexan-5-yl)pyridin-2-yl)-N-(6-methoxy-1-methyl-1H-pyrazolo[4,3-c]pyridin-7-yl)-1H-pyrazole-4-sulfonamide]
> 2500 nM | – | – | Cn1ncc2cccc(NS(=O)(=O)c3cnn(-c4cccc(C(F)(F)F)n4)c3)c21 [Compound I-13, N-(1-Methyl-1H-Indazol-7-yl)-1-(6-(Trifluoromethyl)Pyridin-2-yl)-1H-Pyrazole-4-Sulfonamide]
